Source: the SangsterLogP compilation

Columns and labels:
[1] = method code SF-TN, from DOI: 10.1085/jgp.71.1.93, PMID: 621494
[2] = method code SF, from DOI: 10.1016/j.tca.2016.07.020; details: pH 7.4
[3] = method code SF-GLC, from DOI: 10.1016/s0021-9673(00)92516-0
[4] = method code SF-AS, from DOI: 10.1016/0045-6535(84)90003-1
[5] = method code G-HPLC, from He, Y.; Zhao, Y.; Wang, L.; An, F.; Mo, H.; Yang, K.; Liu, Y.; Yu, G.; Xu, X. (1994). Determination of n-octanol/water partition coefficient of organic compound. Huanjing Huaxue, 13(3)195-197.
[6] = not given; remark: listed apart in the source
[7] = method code SF-RI, from Korenman, M.; Dobromyslova, M. (1975). Distribution of cellosolves between organic solvents and water. Zh. Prikl. Khim., 48(12)2791-2794.
[8] = from Tehrany, E.A.; Desobry, S. (2005). Comparison between the different calculation methods of partition coefficient of aroma compounds with a difference chemical classes in octanol/water system. …
[9] = not given; remark: listed apart in the source
[10] = method code SF, from DOI: 10.1016/0014-2999(70)90221-9, PMID: 5440297; details: pH 7.4
[11] = method code SF-AS, from DOI: 10.1016/s0045-6535(98)00368-3
[12] = not given; remark: listed apart in the source
[13] = method code SF-CR+AS, from Korenman, Y. (1974). Extraction of 2-halophenols from aqueous solutions. Zh. Prikl. Khim., 47(7)1663-1666.
[14] = method code SF-GLC, from DOI: 10.1021/je970020p
[15] = method code SF-AS, from DOI: 10.1016/0891-5849(94)00112-w, PMID: 7744299; details: pH 7.5
[16] = method code SF-GR, from DOI: 10.1021/jm00219a024, PMID: 926124
[17] = method code SF-GLC, from DOI: 10.1021/jo01265a071
[18] = not given; remark: listed apart in the source
[19] = from Büchel, H.; Draber, W.; Trebst, A.; Pistorius, E. (1966). Inhibition of photosynthetic reactions in isolated chloroplasts by benzimidazole-type herbicides and their structure-activity relation, …; details: pH 7.0
[20] = method code SF, from DOI: 10.1016/j.ejps.2014.11.002, PMID: 25447745; details: pH 7.4
[21] = method code SF-AS, from Kosanovic, D.; Dumanovic, D.; Jovanovic, J. (1988). Solubility in octanol And the octanol-water partition coefficients of some 4(5)- and 5-nitroimidazoles. 53(10)559-563.
[22] = not given; remark: listed apart in the source
[23] = method code SF-HPLC, from DOI: 10.1016/j.nucmedbio.2010.03.011, PMID: 20610161; details: pH 7.4
[24] = method code SF-AS, from DOI: 10.1093/ajhp/38.9.1308, PMID: 7282713; details: pH 7.4
[25] = pH 5.6
[26] = method code SF, from DOI: 10.1016/0041-008x(67)90079-8
[27] = not given; remark: listed apart in the source
[28] = not given; remark: listed apart in the source
[29] = method code SF-GLC, from DOI: 10.1021/ac00241a023
[30] = method code SF-HPLC, from DOI: 10.1016/s0045-6535(01)00105-9, PMID: 11695583
[31] = not given; remark: listed apart in the source
[32] = method code SF, from DOI: 10.1016/s0960-894x(00)80094-3; details: pH 7.4
[33] = method code SF-RC, from DOI: 10.1111/j.2042-7158.1987.tb03173.x, PMID: 2886623
[34] = method code SF-GLC,RC, from DOI: 10.1016/0048-3575(73)90050-3
[35] = method code SF-AS, from DOI: 10.1016/0006-2952(74)90620-0, PMID: 4822742; details: pH 7.4
[36] = not given; remark: listed apart in the source
[37] = method code SF, from DOI: 10.1016/0005-2744(69)90103-x, PMID: 4387594
[38] = method code SF-GLC, from DOI: 10.1002/jps.2600641120, PMID: 1195116
[39] = not given; remark: listed apart in the source
[40] = not given; remark: listed apart in the source
[41] = method code SF-AS, from DOI: 10.1016/0006-2952(65)90227-3, PMID: 14322976; details: pH 6.8
[42] = method code SF-AS, from Halmekoski, J.; Hannikainen, H. (1964). Rm values of hydroxy-substituted benzoic acids and partition coefficients of the acids between water and aliphatic alcohols. Suomen Kemist. B, 37, 221-226.
[43] = not given; remark: listed apart in the source
[44] = method code SF-AS, from DOI: 10.1002/jps.2600671008, PMID: 702280; details: pH 7.0
[45] = method code SF-CR+AS, from Korenman, I.; Kotelyanskaya, B.; Nefedova, A. (1976). Extraction of mononitrophenols from aqueous solutions. Zh. Prikl. Khim., 49(5)1150-1152.
[46] = method code SF-AS, from Korenman, I.; Lineva, S.; Gezikova, N. (1978). Extraction of naphthol-sulfonic acids from aqueous solution. Zh. Prikl. Khim., 51(4)869-871.
[47] = not given; remark: listed apart in the source
[48] = method code SF, from DOI: 10.1021/jm00307a001, PMID: 5637185
[49] = not given; remark: listed apart in the source
[50] = method code SF-CR+AS, from Korenman, I.; Lineva, S.; Tishchenko, M. (1979). The influence of substituents on the extraction of phenols. Russ. J. Phys. Chem., 53(11)1678-1679.; details: pH 2.5
[51] = not given; remark: listed apart in the source

Compound: Oc1c(Br)cc(Br)cc1Br
- logP: 4.24

Compound: CCCC(O)C(=O)O (configuration not stated)
- logP [1]: 0.45

Compound: NC(=S)c1ccccn1
- logD [2]: 1.14

Compound: ClCc1ccc(Cl)cc1Cl
- logP [3]: 3.82

Compound: Oc1cc(Cl)cc(Cl)c1Cl
- logP [4]: 3.84

Compound: Clc1ccccc1Cl
- logP [5]: 3.34

Compound: Brc1ccc(Br)cc1
- logP [6]: 3.89

Compound: CC(C)OCCO
- logP [7]: 0.05

Compound: CCCCCC=O
- logP [8]: 1.85

Compound: Oc1c(Cl)c(Cl)c(Cl)c(Cl)c1Cl
- logP [9]: 4.79

Compound: O=C[C@H](O)[C@H](O)[C@H](O)CO
- logD [10]: -2.32

Compound: COc1cc(OC)ncn1
- logP [11]: 0.96

Compound: CCCC[N+](=O)[O-]
- logP [12]: 1.38

Compound: Oc1ccccc1I
- logP [13]: 2.64

Compound: Clc1c(Cl)c(Cl)c(Cl)c(Cl)c1Cl
- logP [14]: 5.74

Compound: CC(C)(C)N=O
- logD [15]: 0.91

Compound: CCCNC(=O)NO
- logP [16]: -0.22

Compound: CCCCCl
- logP [17]: 2.39

Compound: OCCC(F)(F)C(F)(F)C(F)(F)C(F)(F)F
- logP [18]: 3.28

Compound: Clc1nc2c(Cl)c(Cl)c(Cl)c(Cl)c2[nH]1
- logD [19]: 4.53

Compound: O=[N+]([O-])O[C@H]1CO[C@H]2[C@@H]1OC[C@H]2O[N+](=O)[O-]
- logD [20]: 1.2

Compound: Cc1ncc([N+](=O)[O-])n1C
- logP [21]: 0.31

Compound: O=[N+]([O-])/C=C1\NCCCS1
- logP [22]: -0.4

Compound: O=[N+]([O-])c1ncn(CC(O)CF)n1 (configuration not stated)
- logD [23]: -0.46

Compound: Cc1ncsc1CCCl
- logD [24]: 2.12

Compound: NC(=O)c1ccc([N+](=O)[O-])cc1
- logD [25]: 0.82

Compound: Clc1nc(Cl)c(Cl)c(Cl)c1Cl
- logP [26]: 3.53

Compound: Oc1c(Cl)cc(Cl)c(Cl)c1O
- logP [27]: 3.6

Compound: CCCCCO
- logP [28]: 1.41

Compound: Brc1cc(Br)c(Br)cc1Br
- logP [29]: 5.13

Compound: Brc1ccc(Br)c(Br)c1Br
- logP [30]: 5

Compound: Oc1cc(Cl)c(Cl)cc1Cl
- logP [31]: 3.63

Compound: C[C@@H]1CN(O)C(=O)[C@@H]1N
- logD [32]: -3.42

Compound: OC[C@@H](O)[C@@H](O)[C@H](O)[C@H](O)CO (racemic)
- logP [33]: -2.47

Compound: ClCc1ccccc1
- logP [34]: 2.3

Compound: O=S1(=O)N=CNc2ccccc21
- logD [35]: 0.18

Compound: Oc1cc(Br)ccc1Br
- logP [36]: 3.22

Compound: Nc1cccc(Br)c1
- logP [37]: 2.1

Compound: C1CCc2nnnn2CC1
- logP [38]: 0.14

Compound: Clc1ccc(Cl)cc1
- logP [39]: 3.48

Compound: O=C(O)c1ccccc1F
- logP [40]: 1.63

Compound: O=c1ccccc(O)c1
- logD [41]: 0.81

Compound: O=C(O)c1cccc(O)c1O
- logP [42]: 1.2

Compound: Oc1nc(Cl)c(Cl)cc1Cl
- logP [43]: 2.27

Compound: Clc1ccccn1
- logD [44]: 1.34

Compound: O=[N+]([O-])c1ccc(O)cc1
- logP [45]: 1.95

Compound: CC1=C(C(N)=O)SCCO1
- logP [46]: -0.22

Compound: CC(C)(C)OCCO
- logP [47]: 0.39

Compound: C=CC(CC)OC(N)=O (configuration not stated)
- logP [48]: 1.09

Compound: Oc1cccc(Cl)c1Cl
- logP [49]: 2.98

Compound: Cc1cc(N=O)ccc1O
- logD [50]: 1.71

Compound: CSc1ncnc2[nH]cnc12
- logP [51]: 0.57
